Measured values reported in patent US6344350B1, “Method for degradation of pinenes by bacillus isolates” (priority 1997, dated 2002).

How the values were obtained:
pinene hydroxylase = assay: Pinene hydroxylase activity in crude cell extracts; assay type: biochemical, Bacillus BR424; details: for pinene hydroxylase activity with cofactor: NADPH and NADH in place of FAD and potassium ferricyanide
Bacillus isolate BR425 = assay: Growth of BR425 on monoterpenes as carbon source (CFU); assay type: cell-based; details: for growth in media containing the monoterpene as the carbon source: BR425; for optimal concentration for growth: BR425, M9 salts, monoterpene as carbon source, 50° C.
Experimental: For examination of growth rates on various substrates and metabolite production, BR425 was grown in 100 ml serum bottles containing 40 ml M9 salts and various concentrations of either α-pinene, β-pinene, limonene, carveol, carvone, or pinocarveol as the carbon source. The bottles were sealed with TEFLON-coated stoppers and aluminum caps (TEFLON is a trademark owned by E. I. du Pont and Nemours, Wilmington, Del.). Then the bottles were incubated in a water bath gyrorotatory shaker at 50° C. Growth of BR425 was assayed after incubations of 24, 48, and 72 hours as number of colony forming units (CFU).

BR424 = assay: Growth of BR424 on monoterpenes; assay type: cell-based, Bacillus isolate BR424

Row | Compound | growth in media containing the monoterpene as the carbon source (Bacillus isolate BR425) | optimal concentration for growth (Bacillus isolate BR425) [%] | other results
1 | Cc1cc2nc3c(=O)[nH]c(=O)nc-3n(C[C@H](O)[C@H](O)[C@H](O)COP(=O)(O)OP(=O)(O)OC[C@H]3O[C@@H](n4cnc5c(N)ncnc54)[C@H](O)[C@@H]3O)c2cc1C [FAD, Flavin Adenine Dinucleotide] | – | – | Enzyme activity (pinene hydroxylase; addition 0.1 mM FAD): 0.04 U/ml; Enzyme activity (pinene hydroxylase; addition 1 mM FAD): 0.47 U/ml
2 | NC(=O)C1=CN([C@@H]2O[C@H](COP(=O)(O)OP(=O)(O)OC[C@H]3O[C@@H](n4cnc5c(N)ncnc54)[C@H](O)[C@@H]3O)[C@@H](O)[C@H]2O)C=CC1 [NADH] | – | – | pinene hydroxylase activity with cofactor (pinene hydroxylase): No pinene hydroxylase activity was detected
3 | NC(=O)C1=CN([C@@H]2O[C@H](COP(=O)(O)OP(=O)(O)OC[C@H]3O[C@@H](n4cnc5c(N)ncnc54)[C@H](OP(=O)(O)O)[C@@H]3O)[C@@H](O)[C@H]2O)C=CC1 [NADPH] | – | – | pinene hydroxylase activity with cofactor (pinene hydroxylase): No pinene hydroxylase activity was detected
4 | C=C(C)C1CC=C(C)[C@@H](O)C1 (stereo partly drawn) [carveol] | shown to grow | 0.05 | –
5 | C=C(C)C1CC=C(C)C(=O)C1 (stereo not drawn) [carvone] | shown to grow | 0.01 | –
6 | C=C(C)[C@H]1CC=C(C)CC1 [limonene] | shown to grow | – | growth in media containing the monoterpene (BR424): did not appear to be able to grow
7 | CC1(C)C2CC=C(CO)C1C2 (stereo not drawn) [myrtenol] | did not appear to grow | – | –
8 | CC1(C)C2CC3OC3(C)C1C2 (stereo not drawn) [pinene epoxide] | did not appear to grow | – | –
9 | CC1=CCC2CC1C2(C)C (stereo not drawn) [α-pinene] | – | 0.2 | growth in media containing the monoterpene (BR424): can grow
10 | C=C1CCC2CC1C2(C)C (stereo not drawn) [β-pinene] | shown to grow | 0.2 | growth in media containing the monoterpene (BR424): can grow
11 | myrtenal | did not appear to grow | – | –
